Laboratory results: publication PMC5147891 (PLoS ONE, 2016)
Values joined by “and” are separate entries in the source; they are usually repeats but may differ in a detail not shown here. Equal entries are not always repeated. Where two headings read alike, the source gives them in different places. Marks after values point to notes of the source that are not given here.

Key:
[1] = chronic administration, cited from earlier work
[2] = biological target: T1, hCB2 receptors (Homo sapiens, UniProt P34972); experiment: Antagonism of CP-55,940 inhibition of AC activity in intact CHO-hCB2 cells; format: cell-based; conditions: for IMAX of CP-55,940, intracellular [3H]cAMP: CP-55,940 alone or after pre-incubation with AM-630 1 μM
T1 construct: expressed in transfected cells
T1 sequence (P34972 whole entry): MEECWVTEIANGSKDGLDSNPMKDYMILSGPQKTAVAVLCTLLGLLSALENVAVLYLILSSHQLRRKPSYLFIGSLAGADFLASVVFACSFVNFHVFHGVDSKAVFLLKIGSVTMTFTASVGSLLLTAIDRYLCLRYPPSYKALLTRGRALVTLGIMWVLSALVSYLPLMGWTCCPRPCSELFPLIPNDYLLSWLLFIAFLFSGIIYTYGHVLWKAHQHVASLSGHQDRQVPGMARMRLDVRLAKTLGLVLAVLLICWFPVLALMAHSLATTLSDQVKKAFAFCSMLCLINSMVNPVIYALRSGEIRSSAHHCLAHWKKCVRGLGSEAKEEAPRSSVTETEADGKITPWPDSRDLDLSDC
Procedure: (§1) After overnight seeding into 24-well plates and pre-incubation of cells with [^3H]adenine for 3–5 hr at 37°C as described above, media was removed and the indicated concentration of the SERM to be tested was added to all wells of the 24-well plate. […] Reactions were terminated and [^3H]cAMP isolated as described above.
(§2) Data presented are expressed as mean ± standard error of the mean (S.E.M.) for a minimum of three experiments, each performed in triplicate. GraphPad Prism version 6.0f (GraphPad Software Inc.) was used for all curve-fitting and statistical analyses. Non-linear regression for one-site competition was used to determine the IC50 for competition receptor binding. IC50 values were subsequently converted to Ki values (a measure of receptor affinity) by the Cheng-Prusoff equation [31]. Non-linear regression was also used to analyze concentration-effect curves to determine the EC50 or IC50 (measures of potency) and Emax or Imax (measures of efficacy) for GTPγS binding and adenylyl cyclase experiments, respectively. All dissociation constants and measurements of potency were converted to pKi, pKB, pEC50, or pIC50 values by taking the negative log of each value so that parametric tests could be used for statistical comparisons. To compare three or more groups, statistical significance of the data was determined by a one-way ANOVA, followed by post hoc comparisons using a Tukey's or Dunnett's test. To compare two groups, the non-paired Student's t-test was used.

[3] = biological target: T1, hCB2 receptors; experiment: [35S]GTPγS binding (G-protein activity), CHO-hCB2 membranes; format: biochemical; conditions: 10 μM
Procedure: (§3) CHO-hCB1, CHO-hCB2 and CHO-hMOR cells were homogenized individually with 10 complete strokes utilizing a 7ml Dounce glass homogenizer in an ice-cold buffer containing 50 mM HEPES pH 7.4, 3 mM MgCl2, and 1 mM EDTA as described previously. The homogenized samples were then centrifuged at 40,000 × g for 10 min at 4°C. Supernatants were discarded; the pellets re-suspended in the buffer, homogenized again, and centrifuged similarly twice more. After the final centrifugation step, supernatants were discarded and pellets were re-suspended in ice-cold 50 mM HEPES, pH 7.4 to achieve an approximate protein concentration of 10 mg/ml. Membrane homogenates were divided into aliquots and stored at −80°C for future use. A small aliquot of each membrane preparation was removed prior to freezing and the protein concentration was determined using BCA Protein Assay (Thermo Fisher Scientific, Waltham, MA).
The GTPγS binding assay to measure G-protein activation was performed as previously described. Briefly, in a total volume of 1 ml, 25 μg of CHO-hCB2, 50 μg of CHO-hCB1-Rx or 50 μg of CHO-hMOR membranes homogenates were added to each reaction mixture containing 0.1 nM [^35S]GTPγS, 20 mM HEPES, 10 mM MgCl2, 100 mM NaCl, 10 μM GDP, 0.1% bovine serum albumin and the indicated concentrations of ligand to be examined. After mixing, reaction mixtures were incubated at 30°C for 30 min. […] Nonspecific binding was defined by the amount of radioactivity remaining in the presence of 10 μM non-radiolabeled GTPγS. […] Four ml of scintiverse scintillation fluid (Fisher Scientific, Waltham, MA) was added to the filters and the amount of radioactivity was quantified 24 hr later utilizing liquid scintillation spectrophotometry.
Data presented are expressed as mean ± standard error of the mean (S.E.M.) for a minimum of three experiments, each performed in triplicate. […] To compare three or more groups, statistical significance of the data was determined by a one-way ANOVA, followed by post hoc comparisons using a Tukey's or Dunnett's test. […]

[4] = biological target: T1, hCB2 receptors; experiment: Forskolin-stimulated intracellular [3H]cAMP in intact CHO-hCB2 cells; format: cell-based; conditions: for EMAX, intracellular [3H]cAMP: forskolin-stimulated cAMP; for EMAX, intracellular [3H]cAMP / EC50: values only approximate
Procedure: CHO-hCB1, CHO-hCB2, or CHO-hMOR cells were plated separately in normal culture media into 24-well plates at a density of 6 × 10^6 cells/plate and incubated overnight at 37°C in 5% CO2. As previously described, the following day culture media was removed from each well and replaced with 500 μl pre-incubation mixture containing either HAM’s F-12 K (CHO-hCB1) or DMEM (CHO-hCB2 and CHO-hMOR) with 0.9% NaCl, 500 μM 3-isobutyl-1-methylxathine (IBMX) and 2 μCi/well [^3H]adenine. Cells were incubated for 3–5 hr at 37°C. The pre-incubation mix was removed and indicated concentrations of drugs were added to the individual wells for 15 min at 37°C in a Krebs-Ringer-HEPES solution (10 mM HEPES, 110mM NaCl, 25mM Glucose, 55mM Sucrose, 5mM KCl, 1mM MgCl2, 1.8 mM CaCl2, pH 7.4) containing IBMX, and 10 μM forskolin. Reactions were terminated by adding 50 μl 2.2N HCl and [^3H]cAMP was isolated by employing alumina column chromatography. Radioactivity contained in 4 ml of the final column eluate was counted by a Packard-Tri-carb 2100/TR liquid scintillation counter after adding 10 ml of liquid scintillation cocktail.
To determine if modulation of adenylyl cyclase activity by SERMs was mediated through CB2 receptors coupling to Gi/o proteins, additional cAMP assays were conducted following overnight treatment with pertussis toxin as described elsewhere. Briefly, CHO-hCB2 cells were seeded into 24-well plates as described above in normal culture media containing 100 ng/ml of pertussis toxin and incubated overnight at 37°C. Pertussis toxin-treated media was removed and measurement of intracellular [^3H]cAMP levels following indicated SERM treatments was conducted as described above.
as §2

[5] = biological target: T1, hCB2 receptors; experiment: Competition receptor binding with [3H]CP-55,940, CHO-hCB2 membranes; conditions: [3H]CP-55,940 binding, CHO-hCB2, 0.2 nM [3H]CP-55,940, CHO-hCB2 membranes
Procedure: as §3
(§4) Competition receptor binding was performed as reported earlier. […] The total volume of the incubation mixture was 1 ml. All reactions were mixed and allowed to reach equilibrium binding by incubation at room temperature for 90 min. […] Binding was terminated by rapid vacuum filtration through glass fiber filters (Brandel, Gaithersburg, MD), followed by four 5 ml washes of ice-cold 50 mM Tris-HCl (pH 7.4) buffer containing 0.1% bovine serum albumin. Four ml of scintiverse scintillation fluid (Fisher Scientific, Waltham, MA) was added to the filters and the amount of radioactivity was quantified 24 hr later utilizing liquid scintillation spectrophotometry.
as §2

[6] = biological target: T2, hCB1 receptors (Homo sapiens, UniProt P21554); experiment: Competition receptor binding with [3H]CP-55,940, CHO-hCB1 membranes; conditions: for Ki: [3H]CP-55,940 binding, CHO-hCB1, 0.2 nM [3H]CP-55,940, CHO-hCB1 membranes; for Selectivity (CB1/CB2): ratio hCB1-Ki/hCB2-Ki
T2 sequence (P21554 whole entry): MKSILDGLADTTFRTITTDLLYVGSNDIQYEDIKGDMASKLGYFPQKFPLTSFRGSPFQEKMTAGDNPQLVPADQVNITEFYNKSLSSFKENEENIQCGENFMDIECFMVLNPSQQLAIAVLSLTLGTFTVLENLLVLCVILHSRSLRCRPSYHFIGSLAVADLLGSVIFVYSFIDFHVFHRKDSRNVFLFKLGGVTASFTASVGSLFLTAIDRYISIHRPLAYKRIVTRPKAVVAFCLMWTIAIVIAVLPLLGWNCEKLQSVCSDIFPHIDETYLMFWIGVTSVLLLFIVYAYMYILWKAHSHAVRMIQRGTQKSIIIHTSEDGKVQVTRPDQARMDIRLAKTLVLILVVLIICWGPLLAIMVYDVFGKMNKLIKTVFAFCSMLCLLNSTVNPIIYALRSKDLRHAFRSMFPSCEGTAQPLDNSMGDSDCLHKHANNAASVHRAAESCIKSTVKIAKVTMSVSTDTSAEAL
Procedure: as §3, §4, §2

[7] = biological target: T2, hCB1 receptors; experiment: [35S]GTPγS binding (G-protein activity), CHO-hCB1 membranes; format: biochemical
Procedure: as §3
The GTPγS binding assay to measure G-protein activation was performed as previously described. Briefly, in a total volume of 1 ml, 25 μg of CHO-hCB2, 50 μg of CHO-hCB1-Rx or 50 μg of CHO-hMOR membranes homogenates were added to each reaction mixture containing 0.1 nM [^35S]GTPγS, 20 mM HEPES, 10 mM MgCl2, 100 mM NaCl, 10 μM GDP, 0.1% bovine serum albumin and the indicated concentrations of ligand to be examined. After mixing, reaction mixtures were incubated at 30°C for 30 min. […] Nonspecific binding was defined by the amount of radioactivity remaining in the presence of 10 μM non-radiolabeled GTPγS. Reactions were terminated by rapid vacuum filtration through glass fiber filters followed by four washes with ice cold 50 mM HEPES (pH 7.4) containing 0.1% bovine serum albumin. Four ml of scintiverse scintillation fluid (Fisher Scientific, Waltham, MA) was added to the filters and the amount of radioactivity was quantified 24 hr later utilizing liquid scintillation spectrophotometry.
as §2, with “All dissociation constants and measurements of potency were converted to pKi, pKB, pEC50, or pIC50 values by taking the negative log of each value so that parametric tests could be used for statistical comparisons.” left out, “To compare two groups, the non-paired Student's t-test was used.” left out

[8] = system: ERs; conditions: ref [23], [24]; cited from earlier work
[9] = biological target: T2, hCB1 receptors; experiment: Antagonism of CP-55,940 inhibition of AC activity in intact CHO-hCB1 cells; format: cell-based; conditions: for Type of antagonism of CP-55,940 / IMAX of CP-55,940, intracellular [3H]cAMP: CHO-hCB1 cells; for Kb: read-out: Kb (antagonist dissociation constant); for IMAX of CP-55,940, intracellular [3H]cAMP: CP-55,940 alone or after pre-incubation with AM-281 1 μM, Z-Tam 30 μM, Z-4OHT 10 μM, Z-End 30 μM
Procedure: as §1, §2

[10] = biological target: T3, human mu-opioid receptors (hMOR) (Homo sapiens, UniProt P35372); experiment: [35S]GTPγS binding (G-protein activity), CHO-hMOR membranes; format: biochemical; conditions: 10 μM
T3 construct: expressed in transfected cells
T3 sequence (P35372 whole entry): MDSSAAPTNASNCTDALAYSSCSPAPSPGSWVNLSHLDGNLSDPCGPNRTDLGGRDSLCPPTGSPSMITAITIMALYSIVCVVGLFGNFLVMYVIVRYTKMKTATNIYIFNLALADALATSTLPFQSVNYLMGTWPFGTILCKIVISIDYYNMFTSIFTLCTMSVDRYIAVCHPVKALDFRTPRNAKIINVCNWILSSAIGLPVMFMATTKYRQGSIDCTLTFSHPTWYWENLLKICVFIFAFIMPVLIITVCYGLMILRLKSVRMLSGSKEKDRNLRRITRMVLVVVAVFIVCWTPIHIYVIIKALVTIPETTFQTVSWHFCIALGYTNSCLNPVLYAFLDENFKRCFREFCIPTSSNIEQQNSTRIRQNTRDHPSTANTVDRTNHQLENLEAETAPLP
Procedure: as §3, with “Membrane homogenates were divided into aliquots and stored at −80°C for future use.” left out
The GTPγS binding assay to measure G-protein activation was performed as previously described. […] Nonspecific binding was defined by the amount of radioactivity remaining in the presence of 10 μM non-radiolabeled GTPγS. […] Four ml of scintiverse scintillation fluid (Fisher Scientific, Waltham, MA) was added to the filters and the amount of radioactivity was quantified 24 hr later utilizing liquid scintillation spectrophotometry.
Data presented are expressed as mean ± standard error of the mean (S.E.M.) for a minimum of three experiments, each performed in triplicate. […]

[11] = Z-Tam 10 μM, Z-4OHT 10 μM, Z-End 30 μM
[12] = against CP-55,940, AM-630 1 μM, Z-Tam 10 μM, Z-4OHT 10 μM, read-out: Kb (antagonist dissociation constant)
[13] = increase of forskolin-stimulated cAMP

Structure (SMILES)	Type of antagonism of CP-55,940 [2]	IMAX, decrease in basal G-protein activity ([35S]GTPγS binding) [3] [%]	EMAX, intracellular [3H]cAMP [4]	EC50 [4, 13] [nM]	Ki [5] [nM]	Ki [6] [nM]	Selectivity (CB1/CB2) [6]	Type of antagonism of CP-55,940 [9]	further results
CC/C(=C(\c1ccc(O)cc1)c1ccc(OCCN(C)C)cc1)c1ccccc1 [4OHT, 4-hydroxytamoxifen]									Concentration reached in serum ([1]; ref [40]): high nanomolar concentrations; Levels accumulated in brain and breast tissue ([1]; ref [65], [66]): micromolar range
COc1ccc(C(=O)c2c(C)n(CCN3CCOCC3)c3cc(I)ccc23)cc1 [AM-630]	parallel rightward-shift	28.7	214 ± 6.5%	398					IMAX of CP-55,940, intracellular [3H]cAMP [2, 11]: 31.7 ± 0.3^a %; pKb ([2]; against CP-55,940, AM-630 1 μM, Z-Tam 10 μM, Z-4OHT 10 μM): 7.26 ± 0.064; Kb ([2]; against CP-55,940, AM-630 1 μM, Z-Tam 10 μM, Z-4OHT 10 μM, listed as +AM-630, read-out: Kb (antagonist dissociation constant)): 55 nM; Kb [2, 12]: 55.4 nM; pEC50, intracellular [3H]cAMP ([4]; increase of forskolin-stimulated cAMP, mean ± SEM): 6.40 ± 0.096
CC/C(=C(\c1ccc(O)cc1)c1ccc(OCCN(C)C)cc1)c1ccccc1 [E-4OHT, 4-hydroxytamoxifen]			352 ± 52^a^,^b %	9120	957	1240	1.30		Effect on basal [35S]GTPγS binding ([7]; 10 μM): did not significantly alter
CC/C(=C(/c1ccc(O)cc1)c1ccc(OCCNC)cc1)c1ccccc1 [E-End, 4-hydroxy-N-desmethyl tamoxifen]			239 ± 22^b %	10700	2350	1390	0.59		
CC/C(=C(\c1ccccc1)c1ccc(OCCN(C)C)cc1)c1ccccc1 [E-Tam, tamoxifen]		49.7 ± 1.5	464 ± 48^a^, ^†† %						Functional activity at ERs [8]: ER agonist
CC/C(=C(\c1ccc(O)cc1)c1ccc(OCCN(C)C)cc1)c1ccccc1 [Z-4OHT, 4-hydroxytamoxifen]	surmountable antagonism		323 ± 37^a^,^b %	4900	495	681	1.38	surmountable antagonism	Kb [2, 12]: 856 nM and 851 nM; Kb [9]: 4680 nM
CC/C(=C(\c1ccc(O)cc1)c1ccc(OCCNC)cc1)c1ccccc1 [Z-End, 4-hydroxy-N-desmethyl tamoxifen]	insurmountable		259 ± 18^b %	11500	2390	1160	0.49^††	surmountable antagonism	Shift-to-the-right in potency (IC50) of CP-55,940 ([2]; Z-End 30 μM): > 8 fold; Kb [9]: 2570 nM
CC/C(=C(\c1ccccc1)c1ccc(OCCN(C)C)cc1)c1ccccc1 [Z-Tam, tamoxifen]	surmountable antagonism	65.1± 3.0	374 ± 24^a^,^b^, ^††† %					insurmountable	Decrease in [35S]GTPγS binding [10]: 11.3%; IMAX of CP-55,940, intracellular [3H]cAMP [2, 11]: 32.3 ± 0.7^a %; inhibition at 10 µM ([7]; read-out: IMAX, inhibition of basal [35S]GTPγS binding): 50.8 ± 2.7%; IMAX of CP-55,940, intracellular [3H]cAMP [9]: 23.0%; IMAX of CP-55,940, intracellular [3H]cAMP ([9]; listed as +Z-Tam): 23.0 ± 0.5^b %; Functional activity at ERs [8]: ER antagonist
